Data taken from PMC13070491, “Single-nucleus transcriptomics, pharmacokinetics, and pharmacodynamics of CDK4/6 and mTOR inhibition in a Phase 0/1 trial of recurrent high-grade glioma” (Neuro-Oncology, 2025).

Assays:
mTOR = conditions: threshold basis for Phase 1 expansion; no reference given; read-out: biochemical IC50; cited from earlier work
[1] = Adverse events related to study treatment (CTCAE); format: in vivo, human
Experimental: Eligibility was determined based on previous clinical records, panel DNA sequencing, and IHC of archival tissue from a previous surgery (Figure 1, Supplementary Figure S2A).

[2] = system: malignant cells of recurrent IDH-wildtype glioblastoma; test: Single nucleus RNA sequencing of tumor samples, malignant cell state proportions vs standard-of-care cohorts; format: in vivo, human
Description: Count matrices were loaded into R using Seurat's (version 4.3.0) Read10X function. Cells were filtered based on the following quality control criteria: number of genes detected greater than 500 and fewer than 10 000; maximum percentage of mitochondrial genes of 5%. DoubletFinder was used to identify potential nuclei doublets, which were filtered out.[17] The expression data were processed by normalization, scaling, PCA based on genes differentially expressed across brain cell types, Harmony batch correction for sample preparation batch,[18] Uniform Manifold Approximation and Projection (UMAP), and clustering using the Louvain algorithm, and resolution set to 0.6. Cell type annotation was based on gene expression markers for each cluster and confirmed via mapping to a normal reference brain atlas (Azimuth). […] (https://github.com/broadinstitute/[…]) was used to confirm malignant status based on the presence of copy number alterations. […] HMM-predicted copy number alteration levels were extracted to define malignant and nonmalignant cells based on the following approach. […] Putative malignant cells not meeting this threshold were labelled as unresolved and excluded. Cells assigned to a nonmalignant gene expression cluster with 25% of chromosome 7 inferred gain and/or 25% of chromosome 10 inferred loss were labelled as unresolved and excluded. Samples with fewer than 25 malignant cells were excluded from malignant state analysis. […] Cell cycle status was assigned independent of […] cell state. Cells were classified as AC-like, etc., along with its cell cycle status-cycling or not.

[3] = 900 mg QD 5 days monotherapy; ref Tien A, Clin Cancer Res 2019; cited from earlier work
GB86 = test: Ribociclib-treated in vitro single-cell RNA sequencing, malignant state proportions; format: cell-based, human; conditions: ribociclib vs DMSO 5 days
Description: (§1) Patient-derived glioma stem cell lines (GSCs; GB126, GB86, and GB239) were established from resected GBM tumor tissue. Cell lines were genetically profiled for mutations and copy number aberrations using the […] custom gene panel. All cell lines harbored high-level CDK4 amplifications among other alterations. […] The single-cell RNA sequencing data were then processed via cellranger count and Seurat. Briefly, cells were filtered out based on the following criteria: minimum number of genes detected >500 and <10 000 with a maximum percentage of mitochondrial genes set to 10%. Statistical assessment was made between the malignant proportions of each cell state using a 2-sided paired t-test.

GB239 = test: as above; format: cell-based, human; conditions: ribociclib vs DMSO 5 days
Description: as §1

GB126 = test: as above; format: cell-based, human; conditions: ribociclib vs DMSO 5 days
Description: as §1

CDK4/6 = conditions: threshold basis for Phase 1 expansion; no reference given; read-out: biochemical IC50; cited from earlier work
p4EBP1 = test: IHC of tumor tissue, p4EBP1 positive cells; format: in vivo, human; conditions: 5 days ribociclib + everolimus; paired t-test P > .05
Experimental: (§2) Everolimus pharmacodynamic biomarkers were assessed using IHC with the following antibodies: anti-p4EBP1 (Cell Signaling Technology; #2855, 1:500); anti-pS6 ribosomal protein (Cell Signaling -Technology; #4858, 1:100). IHC staining was performed using the BOND RX automated system (Leica Biosystems) as previously described.[8] Stained slides were imaged on a Leica Versa microscope and analyzed with Aperio Image software. Percentage of stain-positive cells was quantified from at least 6 randomly selected regions of interest within the tumor as assessed by a board-certified neuropathologist.

pRb = test: IHC of tumor tissue, pRb positive cells, archival vs Phase 0 surgical sample; format: in vivo, human; conditions: IDH-wildtype patients n = 20; paired t-test P = .25; 5 days ribociclib + everolimus
Ki-67 = test: IHC of tumor tissue, percentage of Ki-67 positive cells, archival vs Phase 0 surgical sample; format: in vivo, human
[4] = system: phosphorylated Rb protein in GB126, GB86 and GB239 glioma stem cell lines; test: Determination of ribociclib dose in vitro (phosphorylated Rb, Western blotting); format: cell-based, human; conditions: 5 days, tested 0.5, 1 and 5 μM
Experimental: Patient-derived glioma stem cell lines (GSCs; GB126, GB86, and GB239) were established from resected GBM tumor tissue. Cell lines were genetically profiled for mutations and copy number aberrations using the IvySeq custom gene panel. […] GB239 was derived from a tumor sample included in this Phase 0 trial (tumor sample: 100-0039). All human GSCs were cultured as described previously.[12]

pS6 ribosomal protein = test: IHC of tumor tissue, pS6 ribosomal protein positive cells; format: in vivo, human; conditions: 5 days ribociclib + everolimus; paired t-test P > .05
Experimental: as §2

[5] = Dose Level 4: ribociclib 600mg QD 5 days + everolimus 50mg single dose, CTCAE grade 1
[6] = Dose Level 5: ribociclib 600mg QD 5 days + everolimus 60mg single dose, CTCAE grade 2

## CO[C@H]1C[C@@H]2CC[C@@H](C)[C@@](O)(O2)C(=O)C(=O)N2CCCC[C@H]2C(=O)O[C@H]([C@H](C)C[C@@H]2CC[C@@H](OCCO)[C@H](OC)C2)CC(=O)[C@H](C)/C=C(\C)[C@@H](O)[C@@H](OC)C(=O)[C@H](C)C[C@H](C)/C=C/C=C/C=C/1C [Everolimus, everolimus]
mTOR
  IC50: 2 nM
[1]; Dose Level 0: ribociclib 400mg + everolimus 2.5mg QD 5 days, CTCAE grade 1
  Stomatitis, No. Patients Affected: 1

## CN(C)C(=O)c1cc2cnc(Nc3ccc(N4CCNCC4)cn3)nc2n1C1CCCC1 [Ribociclib, ribociclib]
[2]; n = 17 ribociclib-exposed vs CARE n = 57 and Wang et al. n = 31, P = 3.2E-03 and P = 2.0E-04
  proportion of malignant cells actively cycling vs standard treatment cohorts (snRNAseq): lower proportion
[2]; n = 17 ribociclib-exposed vs CARE n = 57 and Wang et al. n = 31, P = 5.8E-05, P = 1.8E-03
  neural progenitor-like (NPC-like) state vs standard treatment cohorts (snRNAseq): decrease
[2]; ribociclib monotherapy, single case, snRNAseq
  fraction of NPC-like malignant cells, Phase 2 (104 days) vs Phase 0 (5-day) sample of one patient: reduced fraction
[3]
  Total Ribociclib concentration, CSF, Maximum: 838 nM
  Total Ribociclib concentration, CSF, Median: 267 nM
  Total Ribociclib concentration, CSF, Minimum: 43 nM
  Total Ribociclib concentration, Enhancing tumor, Maximum: 71.76 µM
  Total Ribociclib concentration, Enhancing tumor, Median: 29.252 µM
  Total Ribociclib concentration, Enhancing tumor, Minimum: 6.586 µM
  Total Ribociclib concentration, Non-enhancing tumor, Maximum: 31.424 µM
  Total Ribociclib concentration, Non-enhancing tumor, Median: 12.176 µM
  Total Ribociclib concentration, Non-enhancing tumor, Minimum: 452 nM
  Unbound Ribociclib concentration, CSF, Maximum: 645 nM
  Unbound Ribociclib concentration, CSF, Median: 152 nM
  Unbound Ribociclib concentration, CSF, Minimum: 18 nM
  Unbound Ribociclib concentration, Enhancing tumor, Maximum: 4.743 µM
  Unbound Ribociclib concentration, Enhancing tumor, Median: 1644 nM
  Unbound Ribociclib concentration, Enhancing tumor, Minimum: 307 nM
  Unbound Ribociclib concentration, Non-enhancing tumor, Maximum: 1295 nM
  Unbound Ribociclib concentration, Non-enhancing tumor, Median: 482 nM
GB86; paired t-test P = .04
  change in cycling cells: decrease
GB86; paired t-test P = .06
  AC-like malignant state proportion: increase
GB239; paired t-test P = 5.4E-4
  change in cycling cells: decrease
GB239; paired t-test P = .03
  AC-like malignant state proportion: increase
GB126
  MES-like malignant state proportion: increase
GB126; paired t-test P = 6.6E-3
  AC-like malignant state proportion: increase
GB126; paired t-test P = 8.7E-4
  change in cycling cells: decrease
CDK4/6
  IC50: 40 nM
[1]; [5]
  Dizziness, No. Patients Affected: 1
  Photophobia, No. Patients Affected: 1
[1]; Dose Level 5: ribociclib 600mg QD 5 days + everolimus 60mg single dose, CTCAE grade 1
  Platelet count decreased, No. Patients Affected: 1
[1]; [6]
  Nausea, No. Patients Affected: 1
  Pancytopenia (serious adverse event), No. Patients Affected: 1
[1]; Dose Level 6: ribociclib 600mg QD 5 days + everolimus 70mg single dose, CTCAE grade 1
  Electrocardiogram QT prolonged, No. Patients Affected: 1
p4EBP1
  mTOR pathway activity as quantified by p4EBP1, surgical specimen vs archival tissue: elevated but not significantly different
pRb
  change in phosphorylated Rb, surgical samples vs matched archival tissue: nonsignificant decrease
Ki-67; IDH-wildtype patients n = 20, paired t-test P = .02, 5 days ribociclib + everolimus
  change in proliferative Ki-67 marker, surgical samples vs matched archival tissue: significant decrease
Ki-67; ribociclib 400 mg
  median decrease in Ki-67: 2.93%
Ki-67; ribociclib 600 mg
  median decrease in Ki-67: 8.94%
[4]
  dose per cell line that achieved a 50% inhibition of pRb: 0.5-5 µM
pS6 ribosomal protein
  mTOR pathway activity as quantified by pS6, surgical specimen vs archival tissue: elevated but not significantly different
